Laboratory results reported in the NIST ThermoML archive (doi:10.1016/j.jct.2013.11.021).
± gives the expanded uncertainty stated by the source.

What was measured:
[1] = 313.15 K; 101 kPa; Liquid; Sing-around technique in a fixed-path interferometer
[2] = mn = molality of the nth substance listed, in mol/kg; conditions: 101 kPa, Liquid; for speed of sound: Sing-around technique in a fixed-path interferometer; for mass density: Vibrating tube method

O [water]
Conditions | speed of sound [m/s]
[1] | 1528.9 ± 2.1

O=C[C@H](O)[C@H](O)[C@H](O)CO [D-ribose] + O
[2]
Conditions | mass density, 298.15 K [kg/m3] | mass density, 303.15 K [kg/m3] | mass density, 308.15 K [kg/m3] | mass density, 313.15 K [kg/m3] | mass density, 318.15 K [kg/m3] | speed of sound, 298.15 K [m/s] | speed of sound, 303.15 K [m/s] | speed of sound, 308.15 K [m/s] | speed of sound, 313.15 K [m/s] | speed of sound, 318.15 K [m/s]
m1 = 0.0504 | 999.789 ± 0.64 | 998.382 ± 0.63 | 996.751 ± 0.63 | 994.911 ± 0.63 | 992.887 ± 0.63 | 1498.8 ± 2.1 | 1511.5 ± 2.1 | 1521.3 ± 2.1 | 1531.3 ± 2.1 | 1538.2 ± 2.1
m1 = 0.06883 | 1000.78 ± 0.64 | 999.363 ± 0.64 | 997.73 ± 0.63 | 995.882 ± 0.63 | 993.852 ± 0.63 | 1499.8 ± 2.1 | 1512.3 ± 2.1 | 1522.2 ± 2.1 | 1532.1 ± 2.1 | 1539 ± 2.1
m1 = 0.08626 | 1001.7 ± 0.64 | 1000.29 ± 0.64 | 998.651 ± 0.64 | 996.793 ± 0.63 | 994.758 ± 0.63 | 1500.7 ± 2.1 | 1513.1 ± 2.1 | 1523 ± 2.1 | 1532.9 ± 2.1 | 1539.7 ± 2.1
m1 = 0.1107 | 1003 ± 0.64 | 1001.58 ± 0.64 | 999.932 ± 0.64 | 998.065 ± 0.63 | 996.017 ± 0.63 | 1502 ± 2.1 | 1514.3 ± 2.1 | 1524.1 ± 2.1 | 1534 ± 2.1 | 1540.7 ± 2.1
m1 = 0.136 | 1004.33 ± 0.64 | 1002.89 ± 0.64 | 1001.25 ± 0.64 | 999.37 ± 0.64 | 997.311 ± 0.63 | 1503.3 ± 2.1 | 1515.5 ± 2.1 | 1525.3 ± 2.1 | 1535.1 ± 2.1 | 1541.8 ± 2.1
m1 = 0.1566 | 1005.39 ± 0.64 | 1003.96 ± 0.64 | 1002.31 ± 0.64 | 1000.41 ± 0.64 | 998.355 ± 0.63 | 1504.4 ± 2.1 | 1516.5 ± 2.1 | 1526.3 ± 2.1 | 1536 ± 2.1 | 1542.7 ± 2.1
